From article doi:10.1101/2024.12.23.630085, “Accurate sequence-to-affinity models for SH2 domains from multi-round peptide binding assays coupled with free-energy regression” (bioRxiv, 2025)
Non-standard residues stand in square brackets, D forms with d. Residues, ends and D or L forms follow the SMILES beside them. pY = N[C@@H](Cc1ccc(OP(=O)(O)O)cc1)C(=O)O

Target: T1, c-Src SH2 domain (Homo sapiens, UniProt P12931)
T1 construct: the SH2 domains of two closely-related kinases from the Src subfamily (c-Src and Fyn); made in house
Assay: Competitive fluorescence polarization, c-Src SH2
Type: binding
Conditions: Table S3 unpaired validation; competition fluorescence polarization; probe FITC-Ahx-GDG-pY-EEISPLLL-NH2 30 nM; [SH2] 123-126 nM; mean
Text: (§1) All peptides containing phosphorylated tyrosine, both fluorescently labelled and non-labelled, were produced by SynPeptide (China).

Molecule | Kd
Ac-QKEAHH-pY-VNWRTG-NH2 [Syn-G2-1 (synthetic)] | 9.66 µM

Same assay, conditions: Table S5 single-amino-acid substitution pairs; competition fluorescence polarization; probe FITC-Ahx-GDG-pY-EEISPLLL-NH2 30 nM; [SH2] 240 nM; mean

Molecule | Kd
CC[C@H](C)[C@H](NC(=O)[C@@H]1CCCN1C(=O)[C@H](CCC(N)=O)NC(C)=O)C(=O)N[C@@H](Cc1ccccc1)C(=O)N[C@@H](CCC(=O)O)C(=O)NCC(=O)N[C@@H](Cc1ccc(OP(=O)(O)O)cc1)C(=O)N[C@@H](C)C(=O)N[C@@H](CC(C)C)C(=O)N1CCC[C@H]1C(=O)N[C@@H](Cc1c[nH]cn1)C(=O)N[C@@H](C)C(=O)NCC(N)=O [ACTA1 pY171] (Ac-QPIFEG[pY]ALPHAG-NH2) | 4.67 µM
CC(=O)N[C@@H](CCC(N)=O)C(=O)N[C@@H](CO)C(=O)N[C@@H](CC(C)C)C(=O)N[C@@H](CCC(=O)O)C(=O)N[C@@H](CCCCN)C(=O)N[C@@H](CO)C(=O)N[C@@H](Cc1ccc(OP(=O)(O)O)cc1)C(=O)N[C@@H](CCC(=O)O)C(=O)N[C@@H](CC(C)C)C(=O)N[C@@H](CC(C)C)C(=O)N[C@@H](CC(=O)O)C(=O)NCC(=O)NCC(N)=O [ACTB pY240 P243L] (Ac-QSLEKS[pY]ELLDGG-NH2) | 6.09 µM
CC(=O)N[C@@H](CCC(N)=O)C(=O)N[C@@H](CO)C(=O)N[C@@H](CC(C)C)C(=O)N[C@@H](CCC(=O)O)C(=O)N[C@@H](CCCCN)C(=O)N[C@@H](CO)C(=O)N[C@@H](Cc1ccc(OP(=O)(O)O)cc1)C(=O)N[C@@H](CCC(=O)O)C(=O)N[C@@H](CC(C)C)C(=O)N1CCC[C@H]1C(=O)N[C@@H](CC(=O)O)C(=O)NCC(=O)NCC(N)=O [ACTB pY240] (Ac-QSLEKS[pY]ELPDGG-NH2) | 9.04 µM
CC[C@H](C)[C@H](NC(=O)CNC(=O)[C@H](CCC(=O)O)NC(=O)[C@@H](NC(=O)[C@H](CCC(N)=O)NC(C)=O)C(C)C)C(=O)N[C@@H](CO)C(=O)N[C@@H](Cc1ccc(OP(=O)(O)O)cc1)C(=O)N[C@@H](CC(=O)O)C(=O)N[C@@H](Cc1ccccc1)C(=O)N[C@H](C(=O)N1CCC[C@H]1C(=O)N[C@H](C(=O)NCC(N)=O)[C@@H](C)O)[C@@H](C)CC [CBS pY308 G307S] (Ac-QVEGIS[pY]DFIPTG-NH2) | 4.28 µM
CC[C@H](C)[C@H](NC(=O)CNC(=O)[C@H](CCC(=O)O)NC(=O)[C@@H](NC(=O)[C@H](CCC(N)=O)NC(C)=O)C(C)C)C(=O)NCC(=O)N[C@@H](Cc1ccc(OP(=O)(O)O)cc1)C(=O)N[C@@H](CC(=O)O)C(=O)N[C@@H](Cc1ccccc1)C(=O)N[C@H](C(=O)N1CCC[C@H]1C(=O)N[C@H](C(=O)NCC(N)=O)[C@@H](C)O)[C@@H](C)CC [CBS pY308] (Ac-QVEGIG[pY]DFIPTG-NH2) | 2.73 µM
CC[C@H](C)[C@H](NC(=O)[C@H](CC(C)C)NC(=O)[C@H](CO)NC(=O)[C@H](Cc1ccc(OP(=O)(O)O)cc1)NC(=O)[C@H](CCCNC(=N)N)NC(=O)[C@H](CCCNC(=N)N)NC(=O)[C@H](CCC(N)=O)NC(=O)[C@H](CC(=O)O)NC(=O)[C@H](CO)NC(=O)[C@H](CCC(N)=O)NC(C)=O)C(=O)N[C@@H](CC(=O)O)C(=O)N[C@@H](CCCNC(=N)N)C(=O)NCC(N)=O [CLIP2 pY972] (Ac-QSDQRR[pY]SLIDRG-NH2) | 3.98 µM

Target: T2, Grb2 SH2 domain (Homo sapiens, UniProt P62993)
T2 construct: one distantly-related SH2 domain from the adapter protein Grb2; His6-SUMO (N); mCh (only in the data set names 'Grb2mCh'; possibly an mCherry fusion, never explained); made in house
Assay: Competitive fluorescence polarization, Grb2 SH2
Type: binding
Conditions: Table S3 unpaired validation; competition fluorescence polarization; probe FITC-Ahx-FDDPS(pY)VNVQN 30 nM; [SH2] 123 nM; mean
Text: as §1

T2 sequence (P62993 60-152 limits assumed): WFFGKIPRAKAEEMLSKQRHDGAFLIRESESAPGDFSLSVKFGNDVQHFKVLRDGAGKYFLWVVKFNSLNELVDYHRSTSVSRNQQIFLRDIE

Molecule | Kd
Ac-QHNIHS-pY-INIPPG-NH2 [Syn-G2-2 (synthetic)] | 0.00399 µM
Ac-QHRLNN-pY-ENNRLG-NH2 [Syn-G2-6 (synthetic)] | 2.25 µM
Ac-QIEVGT-pY-QNPHNG-NH2 [Syn-G2-7 (synthetic)] | 3.24 µM
Ac-QKEAHH-pY-VNWRTG-NH2 [Syn-G2-1 (synthetic)] | 0.0318 µM
Ac-QLGHQR-pY-HNITPG-NH2 [Syn-G2-5 (synthetic)] | 0.487 µM

Target: T3, Fyn SH2 domain (Homo sapiens, UniProt P06241)
T3 construct: The human SH2 domains from Fyn (142–248), Lyn (121–228); His6-SUMO (N, cleaved yes); made in house; host or cells: E. coli C43(DE3) with BirA helper plasmid
Assay: Competitive fluorescence polarization, Fyn SH2
Type: binding
Conditions: Table S3 unpaired validation; competition fluorescence polarization; probe FITC-Ahx-GDG-pY-EEISPLLL-NH2 0.4 nM; [SH2] 4.12 nM; mean
Description: Next, the protein was eluted with elution buffer (50 mM Tris, pH 7.5, 50 mM NaCl, 250 mM imidazole, 10% glycerol) directly onto a 5 mL HiTrap Q HP anion exchange column (Cytiva). […] The biotinylated SH2 domain was then collected in a flowthrough after running the cleavage reaction over a HisTrap HP column.

T3 sequence (P06241 142-248): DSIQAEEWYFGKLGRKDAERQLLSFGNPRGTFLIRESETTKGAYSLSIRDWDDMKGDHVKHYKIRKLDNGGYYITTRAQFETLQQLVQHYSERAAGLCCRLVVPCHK

Molecule | Kd
Ac-QLHVHP-pY-EKVEDG-NH2 [Syn-F-1 (synthetic)] | 0.0302 µM
Ac-QMEKHV-pY-ESVTQG-NH2 [Syn-F-2 (synthetic)] | 0.0183 µM
